# Assay results taken from US20160052955A1 (SLOAN-KETTERING INSTITUTE FOR CANCER RESEARCH, priority 2013, published 2016).
# Molecular target: SETDB1Full-length (Homo sapiens, UniProt Q15047)
# Test: Filter-paper methyltransferase assay, SETDB1
# Format: biochemical
compound,measurement,value
"Nc1ncnc2c1ncn2[C@@H]1O[C@H](C[C@@H](N)CC[C@H](N)C(=O)O)[C@@H](O)[C@H]1O [Sinefungin, sinefungin, reference compound]",IC50,8 µM
